Laboratory results reported in BindingDB's records for patent US20250026742 (Suzhou Ark Biopharmaceutical Co., 2025).
pIC50: −log10 of the molar value.

Target: Serine/threonine-protein kinase ATR (Homo sapiens, UniProt Q13535)
Assay: ATR Enzyme Activity Inhibition Assay
Description: Prepare various buffer systems required for the experiment:1. […] Prepare detection buffer: Dilute each of the anti-phospho-p53-Eu cryptate (Cisbio, Cat #61P08KA) and anti-GST-d2 (Cisbio, Cat #61GSTDLB) to 1 unit using HTRF detection buffer (Cisbio, Cat #62SDBRDF).Powdered compounds were dissolved in DMSO to from a stock solution at a concentration of 10 mM. The solution of compounds to be tested at a concentration of […] was performed a 3-fold dilution for 10 concentrations with DMSO. […] 5 μL of ATR was added to each well accordingly. Each well is incubated at 25° C. for 10 min, added with 5 μL of reaction substrate, incubated at 25° C. for 90 min and added with 10 μL of detection solution.

Chain of Serine/threonine-protein kinase ATR (Q13535 whole entry): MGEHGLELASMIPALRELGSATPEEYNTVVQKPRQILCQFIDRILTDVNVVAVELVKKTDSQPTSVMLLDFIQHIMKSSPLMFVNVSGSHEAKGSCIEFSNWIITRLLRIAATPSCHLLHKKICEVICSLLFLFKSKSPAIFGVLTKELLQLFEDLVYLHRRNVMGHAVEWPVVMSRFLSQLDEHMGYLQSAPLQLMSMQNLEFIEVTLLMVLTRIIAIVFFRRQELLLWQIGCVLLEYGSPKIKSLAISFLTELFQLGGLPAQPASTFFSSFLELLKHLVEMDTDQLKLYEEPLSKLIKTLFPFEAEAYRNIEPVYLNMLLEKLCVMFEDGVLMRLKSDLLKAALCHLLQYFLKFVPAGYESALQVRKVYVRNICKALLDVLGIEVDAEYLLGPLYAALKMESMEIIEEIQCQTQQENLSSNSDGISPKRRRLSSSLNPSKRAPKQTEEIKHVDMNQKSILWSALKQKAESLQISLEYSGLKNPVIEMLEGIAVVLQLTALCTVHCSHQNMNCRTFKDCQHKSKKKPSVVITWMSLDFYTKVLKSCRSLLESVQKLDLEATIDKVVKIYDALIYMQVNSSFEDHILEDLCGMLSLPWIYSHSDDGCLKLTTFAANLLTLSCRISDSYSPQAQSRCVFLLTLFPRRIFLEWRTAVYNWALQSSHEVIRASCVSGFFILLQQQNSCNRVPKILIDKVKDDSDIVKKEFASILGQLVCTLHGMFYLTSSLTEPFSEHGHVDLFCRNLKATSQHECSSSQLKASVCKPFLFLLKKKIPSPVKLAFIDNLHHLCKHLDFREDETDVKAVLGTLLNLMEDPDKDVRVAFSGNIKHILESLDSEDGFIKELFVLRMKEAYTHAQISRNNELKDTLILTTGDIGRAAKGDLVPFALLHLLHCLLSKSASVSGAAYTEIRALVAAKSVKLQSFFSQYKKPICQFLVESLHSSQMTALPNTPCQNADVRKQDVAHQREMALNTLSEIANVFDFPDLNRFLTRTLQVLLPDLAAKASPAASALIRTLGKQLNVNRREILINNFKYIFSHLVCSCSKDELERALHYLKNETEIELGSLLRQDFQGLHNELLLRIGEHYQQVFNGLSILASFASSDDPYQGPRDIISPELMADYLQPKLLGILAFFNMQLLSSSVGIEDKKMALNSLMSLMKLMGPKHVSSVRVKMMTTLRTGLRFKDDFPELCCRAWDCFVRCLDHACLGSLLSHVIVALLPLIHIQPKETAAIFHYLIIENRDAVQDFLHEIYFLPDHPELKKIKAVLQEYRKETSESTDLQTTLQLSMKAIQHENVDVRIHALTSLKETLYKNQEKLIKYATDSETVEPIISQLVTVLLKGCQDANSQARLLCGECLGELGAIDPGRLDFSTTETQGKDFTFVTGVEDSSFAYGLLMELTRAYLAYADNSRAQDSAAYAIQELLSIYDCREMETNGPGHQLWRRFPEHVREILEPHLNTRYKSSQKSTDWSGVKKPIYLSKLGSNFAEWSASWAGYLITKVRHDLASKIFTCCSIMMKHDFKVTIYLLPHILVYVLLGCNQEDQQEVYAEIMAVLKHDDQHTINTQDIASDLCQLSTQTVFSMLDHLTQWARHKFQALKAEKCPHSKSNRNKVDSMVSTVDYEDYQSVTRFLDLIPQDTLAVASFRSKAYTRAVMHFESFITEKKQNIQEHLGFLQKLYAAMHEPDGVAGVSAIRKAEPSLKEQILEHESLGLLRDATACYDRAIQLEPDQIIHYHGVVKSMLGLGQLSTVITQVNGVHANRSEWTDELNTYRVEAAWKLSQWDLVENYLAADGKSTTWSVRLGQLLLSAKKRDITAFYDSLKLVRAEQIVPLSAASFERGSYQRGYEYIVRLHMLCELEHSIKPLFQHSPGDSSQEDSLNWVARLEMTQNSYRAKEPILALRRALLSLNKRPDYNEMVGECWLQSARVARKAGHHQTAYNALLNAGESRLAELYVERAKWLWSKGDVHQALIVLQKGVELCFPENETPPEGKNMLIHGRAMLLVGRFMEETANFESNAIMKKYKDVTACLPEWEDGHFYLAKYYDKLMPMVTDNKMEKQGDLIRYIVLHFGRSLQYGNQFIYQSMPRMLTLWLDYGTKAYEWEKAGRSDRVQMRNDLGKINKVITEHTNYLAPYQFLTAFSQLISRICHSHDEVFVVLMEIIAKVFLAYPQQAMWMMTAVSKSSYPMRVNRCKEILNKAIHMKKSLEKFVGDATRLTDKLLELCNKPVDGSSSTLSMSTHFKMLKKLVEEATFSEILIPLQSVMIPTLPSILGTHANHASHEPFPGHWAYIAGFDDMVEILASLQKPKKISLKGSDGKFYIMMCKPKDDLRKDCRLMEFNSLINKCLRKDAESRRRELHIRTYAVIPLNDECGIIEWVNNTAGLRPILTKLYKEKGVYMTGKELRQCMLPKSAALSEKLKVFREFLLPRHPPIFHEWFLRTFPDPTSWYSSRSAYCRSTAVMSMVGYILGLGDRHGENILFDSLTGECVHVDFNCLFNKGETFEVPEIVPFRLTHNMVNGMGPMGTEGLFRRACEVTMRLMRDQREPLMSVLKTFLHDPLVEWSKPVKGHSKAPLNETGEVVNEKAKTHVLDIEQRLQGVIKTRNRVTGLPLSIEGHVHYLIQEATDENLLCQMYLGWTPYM

Point of comparison: `CC(C)S(=O)(=O)c1ccc(-c2cnc(N)c(-c3cc(-c4ccc(CNC(N)=O)cc4)no3)n2)cc1` [US20250026742, Example 9], pIC50 8.74. Against it:
- CN=S(C)(=O)c1ccc(-c2cnc(N)c(-c3cc(-c4ccc(CNC(=N)N)cc4)no3)n2)cc1 (stereo not drawn) [US20250026742, Example 12] — within 0.2 log units, 8.60
- CC(=N)Nc1ccc(-c2cc(-c3nc(-c4ccc(S(=O)(=O)C(C)C)cc4)cnc3N)on2)cc1 [US20250026742, Example 29] — 0.23 log units lower, 8.51
